The values below come from US11976083B2, “Inhibitors of peptidylarginine deiminases” (Gilead Sciences, Inc., priority 2020, dated 2024).

The test addresses T1, human PAD4 (Homo sapiens, UniProt Q9UM07).
T1 construct: human PAD4 (NM_012387), A2-P663, was PCR amplified; His-SUMO (N, cleaved yes); made in house; host or cells: E. coli BL21(DE3)
Kind of test: In vitro PAD4 BAEE biochemical assay. As to conditions: BAEE substrate 3 mM, 5 nM PAD4, 2 mM calcium chloride; geometric mean of multiple experiments. A digest of the protocol:
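Ammonia produced by BAEE deimination (3 mM substrate, 2 h, 25 °C) was read as fluorescent isoindole after o-phthalaldehyde/DTT derivatization, ex 405 nm/em 535 nm. Human PAD4 at 5 nM final, 2 mM calcium, pH 7.6 MOPS; compound preincubated 30 min. IC50s, normalized to BB-Cl-Amidine and DMSO controls, were geometric-mean averaged.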

Each structure is given as a SMILES string.

T1 sequence (Q9UM07 2-663): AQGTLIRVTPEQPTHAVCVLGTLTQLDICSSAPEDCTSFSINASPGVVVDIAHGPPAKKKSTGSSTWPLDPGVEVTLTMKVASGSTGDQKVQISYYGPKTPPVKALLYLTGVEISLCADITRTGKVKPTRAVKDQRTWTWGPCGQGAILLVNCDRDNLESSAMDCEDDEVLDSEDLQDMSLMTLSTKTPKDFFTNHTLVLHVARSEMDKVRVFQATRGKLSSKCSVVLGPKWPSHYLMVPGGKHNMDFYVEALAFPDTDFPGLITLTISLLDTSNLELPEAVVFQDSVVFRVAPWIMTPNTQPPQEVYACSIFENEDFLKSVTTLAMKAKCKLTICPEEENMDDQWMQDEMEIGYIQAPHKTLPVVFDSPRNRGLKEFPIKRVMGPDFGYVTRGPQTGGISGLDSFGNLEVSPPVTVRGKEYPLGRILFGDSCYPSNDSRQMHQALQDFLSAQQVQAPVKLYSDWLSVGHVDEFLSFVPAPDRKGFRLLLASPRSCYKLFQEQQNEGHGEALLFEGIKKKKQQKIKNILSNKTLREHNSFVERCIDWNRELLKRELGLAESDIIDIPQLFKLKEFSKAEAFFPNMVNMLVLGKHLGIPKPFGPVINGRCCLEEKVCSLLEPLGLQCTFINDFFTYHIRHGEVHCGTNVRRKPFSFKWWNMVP

Usually IC50 stands for the concentration at which inhibition is half-maximal. On to `C[C@H]1NC(=O)[C@@H]2C[C@H]2CCCCCn2c(-c3nc4cc(C(=O)N5C[C@H](N)[C@@H]6CC[C@H]5C6)cc(F)c4n3C3CC3)cc3ccc1nc32` [Example 882, (2~{R},5~{R},7~{R})-14-[5-[(1~{S),4~{R},5~{R})-4-amino-2-azabicyclo [3.2.1]octane-2-carbonyl]-1-cyclopropyl-7-fluoro-benzimidazol-2-yl]-2-methyl-3,13,19-triazatetracyclo[11.5.2.0^ {5,7}.0^{16,20}]icosa-1(19),14,16(20),17-tetraen-4-one], for which the IC50 was determined as 22 nM.

In the case of `COc1cc(C(=O)N2CCC[C@@H](N)[C@H]2C)cc2nc(-c3cc4ccc5nc4n3CCCCCc3nccnc3C(=O)N[C@@H]5C)n(C)c12` [Example 528, (2~{R})-17-[5-[(2~ {R},3~{R})-3-amino-2-methyl-piperidine-1-carbonyl]-7-methoxy-1-methyl-benzimidazol-2-yl]-2-methyl-3,6,9,16,22-pentazatetracyclo [14.5.2.0^{5,10}.0^{19, 23}]tricosa-1(22),5(10), 6,8,17,19(23),20-heptaen-4-one], the 50% inhibitory concentration (IC50) was found to be 55 nM.

With `COc1cc(C(=O)N2CC[C@@H](OC)[C@@H](N)C2)cc2nc(-c3cc4ccc5nc4n3CCCCCCC3(CC3)C(=O)N[C@@H]5C)n(C)c12` [Example 62, (11~{R})-17-[5-[(3~{S},4~{R})-3-amino-4-methoxy-piperidine-1-carbonyl]-7-methoxy-1-methyl-benzimidazol-2-yl]-11-methyl-spiro[1,10,19-triazatricyclo[10.5.2.0^{15,18}]nonadeca-12(19),13,15(18),16-tetraene-8,1′-cyclopropane]-9-one], the IC50 was determined as 150 nM.

`CO[C@@H]1CCN(C(=O)c2ccc3c(c2)nc(-c2cc4ccc5nc4n2CC(F)(F)CCC[C@@H]2C[C@H]2C(=O)N[C@@H]5C)n3C2CC2)C[C@@H]1N` [Example 690, (2~{R},5~{R},7~{R})-14-[5-[(3~{S},4~{R})-3-amino-4-methoxy-piperidine-1-carbonyl]-1-cyclopropyl-benzimidazol-2-yl]-11,11-difluoro-2-methyl-3,13,19-triazatetracyclo [11.5.2.0^{5,7}.0^{16,20}] icosa-1(19),14,16(20), 17-tetraen-4-one]: the 50% inhibitory concentration (IC50) was found to be 54 nM.

For `COc1cc(C(=O)N[C@H]2CNC[C@H](F)C2)cc2nc(-c3cc4ccc5nc4n3CCCCCCC(C)(C)C(=O)N[C@@H]5C)n(C)c12` [Example 64, ~{N}-[(3~{R},5~{R})-5-fluoro-3-piperidyl]-7-methoxy-1-methyl-2-[(11~{R})-8,8,11-trimethyl-9-oxo-1,10,19-triazatricyclo[10.5.2.0^{15,18}]nonadeca-12(19),13,15(18),16-tetraen-17-yl]benzimidazole-5-carboxamide], the 50% inhibitory concentration (IC50) turned out to be 315 nM.

`COc1cc(C(=O)N[C@H]2CNC[C@@H](C)C2)cc2nc(-c3cc4ccc5nc4n3CCCCCCC(C)(C)C(=O)N[C@@H]5C)n(C)c12` [Example 68, 7-methoxy-1-methyl-~{N}-[(3~{R},5~{S})-5-methyl-3-piperidyl]-2-[(11~{R})-8,8,11-trimethyl-9-oxo-1,10,19-triazatricyclo[10.5.2.0^{15,18}]nonadeca-12(19),13,15(18),16-tetraen-17-yl]benzimidazole-5-carboxamide]: the concentration for half-maximal inhibition (IC50) is 287 nM.

As for `C[C@@H]1[C@H](N)CCCN1C(=O)c1cc(F)c2c(c1)nc(-c1cc3ccc4nc3n1CC(F)(F)CCC[C@@H]1C[C@H]1C(=O)N[C@@H]4C)n2[C@@H]1C[C@@H]1F` [Example 747, (2~{R},5~{R},7~{R})-14-[5-[(2~{R},3~{R})-3-amino-2-methyl-piperidine-1-carbonyl]-7-fluoro-1-[(1~{R},2~{S})-2-fluorocyclopropyl]benzimidazol-2-yl]-11,11-difluoro-2-methyl-3,13,19-triazatetracyclo [11.5.2.0^{5,7}.0^{16,20}] icosa-1(19),14,16(20),17-tetraen-4-one], the IC50 came to 10 nM.

Consider `COc1cc(C(=O)N2[C@H]3CC[C@@H]2[C@H](N)C3)cc2nc(-c3cc4ccc5cc4n3CCCOC[C@H]3C[C@H]3C(=O)N[C@@H]5C)n(C)c12` [Example 342, (2~{R},5~{R},7~{S})-14-[5-[(1~{R},2~{R},4~{S})-2-amino-7-azabicyclo[2.2.1]heptane-7-carbonyl]-7-methoxy-1-methyl-benzimidazol-2-yl]-2-methyl-9-oxa-3,13-diazatetracyclo[11.5.2.0^{5,7}.0^{16,20}] icosa-1(19),14,16(20),17-tetraen-4-one], for which the half-inhibitory concentration (IC50) was 43 nM.

On to `C[C@H]1NC(=O)c2nccnc2CCCCCn2c(-c3nc4cc(C(=O)N5C[C@H](N)[C@@H]6CC[C@H]5C6)c(F)c(F)c4n3C3CC3)cc3ccc1nc32` [Example 877, (2~{R})-17-[5-[(1~{S},4~{R}, 5~{})-4-amino-2-azabicyclo [3.2.1]octane-2-carbonyl]-1-cyclopropyl-6,7-difluoro-benzimidazol-2-yl]-2-methyl-3,6,9,16,22-pentazatetracyclo [14.5.2.0^{5,10}.0^{19,23}] tricosa-1(22),5(10),6,8,17,19(23), 20-heptaen-4-one], for which the IC50 came to 40 nM.

In the case of `C[C@H]1NC(=O)c2c(ccnc2C2CC2)CCCCCn2c(-c3nc4cc(C(=O)N5C[C@H](N)[C@@H]6CC[C@H]5C6)cc(F)c4n3C3CC3)cc3ccc1nc32` [Example 671, (2~{R})-17-[5-[(1~{S),4~ {R},5~{R})-4-amino-2-azabicyclo[3.2.1]octane-2-carbonyl]-1-cyclopropyl-7-fluoro-benzimidazol-2-yl]-6-cyclopropyl-2-methyl-3,7,16,22-tetrazatetracyclo [14.5.2.0^{5,10}.0^{19,23}] tricosa-1(22),5(10),6,8,17, 19(23),20-heptaen-4-one], the IC50 was 20 nM.

With `COc1cc(C(=O)N2CC[C@@H](OC(F)F)[C@@H](N)C2)cc2nc(-c3cc4ccc5cc4n3CCCCCc3nccnc3C(=O)N[C@@H]5C)n(C)c12` [Example 577, (2~{R})-17-[5-[(3~{S),4~{R})-3-amino-4-(difluoromethoxy)piperidine-1-carbonyl]-7-methoxy-1-methyl-benzimidazol-2-yl]-2-methyl-3,6,9,16-tetrazatetracyclo [14.5.2.0^{5,10}.0^{19, 23}]tricosa-1(22),5(10), 6,8,17,19(23),20-heptaen-4-one], the IC50 is 84 nM.

Consider `COc1cc(C(=O)N2[C@H]3CC[C@@H]2[C@H](N)C3)cc2nc(-c3cc4ccc5nc4n3CC(F)(F)CCCCCC(=O)N[C@@H]5C)n(C)c12` [Example 534, (11~{R})-17-[5-[(1~ {R},2~{R},4~{S})-2-amino-7-azabicyclo[2.2.1]heptane-7-carbonyl]-7-methoxy-1-methyl-benzimidazol-2-yl]-3,3-difluoro-11-methyl-1,10,19-triazatricyclo[10.5.2.0^ {15,18}]nonadeca-12(19),13,15(18),16-tetraen-9-one], for which the IC50 is 56 nM.

For `COc1cc(C(=O)N[C@H]2CNCCC2(F)F)cc2nc(-c3cc4ccc5nc4n3CCC/C=C/c3ccccc3C(=O)N[C@@H]5C)n(C)c12` [Example 495, ~{N}-[(3~{S})-4,4-difluoro-3-piperidyl]-7-methoxy-1-methyl-2-[(2~{R},11~{E})-2-methyl-4-oxo-3,16,22-triazatetracyclo[14.5.2.0^ {5,10}.0^{19,23}]tricosa-1(22),5(10),6,8,11, 17,19(23),20-octaen-17-yl] benzimidazole-5-carboxamide], the IC50 is 518 nM.

On to `C[C@H]1NC(=O)c2ccc(C(F)(F)F)nc2CCCCCn2c(-c3nc4cc(C(=O)N5C[C@H](N)[C@@H]6CC[C@H]5C6)cc(F)c4n3C3CC3)cc3ccc1nc32` [Example 474, (2~{R})-17-[5-[(1~{S},4~{R},5~{R})-4-amino-2-azabicyclo[3.2.1]octane-2-carbonyl]-1-cyclopropyl-7-fluoro-benzimidazol-2-yl]-2-methyl-8-(trifluoromethyl)-3,9,16,22-tetrazatetracyclo[14.5.2.0^{5,10}.0^{19,23}] tricosa-1(22),5(10),6,8,17,19(23),20-heptaen-4-one], for which the half-inhibitory concentration (IC50) was 49 nM.

On to `C[C@H]1NC(=O)[C@]2(C)C[C@H]2CCCCCn2c(-c3nc4cc(C(=O)N[C@H]5CNCC[C@@H]5F)c(F)cc4n3C3CC3)cc3ccc1nc32` [Example 544, 1-cyclopropyl-2-[(2~ {R},5~{R},7~{R})-2,5-dimethyl-4-oxo-3,13,19-triazatetracyclo [11.5.2.0^{5,7}.0^{16,20}]icosa-1(19),14,16(20), 17-tetraen-14-yl]-6-fluoro-~ {N}-[(3~{S},4~{S})-4-fluoro-3-piperidyl]benzimidazole-5-carboxamide], for which the IC50 was 40 nM.

As for `COc1cc(C(=O)N2CC[C@@H](OC)[C@@H](N)C2)cc2nc(-c3cc4ccc5nc4n3CCCCCc3ccnc(F)c3C(=O)N[C@@H]5C)n(C)c12` [Example 825, (2~{R})-17-[5-[(3~{S},4~ {R})-3-amino-4-methoxy-piperidine-1-carbonyl]-7-methoxy-1-methyl-benzimidazol-2-yl]-6-fluoro-2-methyl-3,7,16,22-tetrazatetracyclo[14.5.2.0^ {5,10}.0^{19,23}]tricosa-1(21),5,7,9,17,19,22-heptaen-4-one], the half-inhibitory concentration (IC50) stood at 38 nM.

`COc1cc(C(=O)N2CCC[C@@H](N)C2)cc2nc(-c3cc4ccc5nc4n3CCCCCCCC(=O)N[C@@H]5C)n(C3CC3)c12` [Example 229, (11~{R})-17-[5-[(3~{R})-3-aminopiperidine-1-carbonyl]-1-cyclopropyl-7-methoxy-benzimidazol-2-yl]-11-methyl-1,10,19-triazatricyclo[10.5.2.0^{15,18}]nonadeca-12(19),13,15(18),16-tetraen-9-one]: the half-inhibitory concentration (IC50) was 72 nM.
